Measurements taken from US7771713B2, “Chemical composition that attract arthropods” (priority 1999, dated 2010).

Experiments:
Anopheles albimanus = experiment: Olfactometer attraction test of compounds and compositions; assay type: in vivo;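 also: olfactometer with a treatment port and a matching control port using identical delivery device and conditions, both opened together, three tests per battery, each run in its own cage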
Aedes aegypti = experiment: Olfactometer attraction test, treatment port vs control port, approximately 75 female mosquitoes; assay type: in vivo; settings: for Δ [(Resp with LA) − Resp] (%): difference between response with L-lactic acid and response alone; for Response with Ace (%): base compound together with acetone; for Δ [(Resp with Ace) − Resp] (%): difference between response with acetone and response alone
Procedure: The tests were conducted in an olfactometer (55 ft^3/min airflow, 80° F., 60% R.H.) as described by Posey, J. Med. Entomol., 35, 330-334 (1998); and LA is lactic acid. Mosquitoes were allowed to settle at least one hour prior to testing. The olfactometer was cleaned after each battery of tests. Each battery consisted of three tests, conducted at 08:30, 11:00 and 13:00 hours local time. Each of the three tests was conducted in a separate cage. The control consisted of identical sample delivery devices and conditions compared to that of the treatment side. Both the treatment and control ports were opened and closed simultaneously when inserting a new treatment/control.

[1] = compound 500 μL together with L-lactic acid
[2] = compound alone, high dose of 500 μL
[3] = no Base, Activator1 dose 500, 60 mL glass petri dish
[4] = single compound, dose 500 (μL), 60 mL glass petri dish, Aedes aegypti attraction
[5] = base compound alone (mode of action similar to lactic acid)

## O=CO [Formic Acid]
Anopheles albimanus; in vivo
  % caught: 0.0%

## ClCCl [methylene chloride]
Aedes aegypti; [1]
  Response with L-LA (%): 7090%
Aedes aegypti; [2]
  Response (%): 87%
Aedes aegypti
  Δ [(Resp with LA) − Resp] (%): −7%
Anopheles albimanus; single treatment, 500 μL
  % caught: 75.7%

## CCCCCC(=O)CC [3-Octanone]
Anopheles albimanus; single treatment, 500 μL
  % caught: 25.0%

## CC(C)C=O [Isobutanal]
Aedes aegypti; [3]
  Response Avg %: 13.0%

## CCC(=O)CC [3-pentanone]
Aedes aegypti; [1]
  Response with L-LA (%): 28%
Aedes aegypti; [2]
  Response (%): 12%
Aedes aegypti
  Δ [(Resp with LA) − Resp] (%): 16%
Anopheles albimanus; single treatment, 500 μL
  % caught: 53.9%

## c1cnccn1 [Pyrazine]
Anopheles albimanus; single treatment, 500 μL
  % caught: 29.3%

## CC(=O)C(C)=O [2,3-butanedione]
Aedes aegypti; [1]
  Response with L-LA (%): 29%
Aedes aegypti; [2]
  Response (%): 37%
Aedes aegypti
  Δ [(Resp with LA) − Resp] (%): −8%
Anopheles albimanus; single treatment, 500 μL
  % caught: 1.4%

## CCCC(C)=O [2-pentanone]
Aedes aegypti; [1]
  Response with L-LA (%): 76%
Aedes aegypti; [2]
  Response (%): 8%
Aedes aegypti
  Δ [(Resp with LA) − Resp] (%): 64%
Anopheles albimanus; single treatment, 500 μL
  % caught: 10.8%

## C=CCCCCCCCCCCCC [1-Tetradecene]
Anopheles albimanus; single treatment, 500 μL
  % caught: 1.4%

## C[S+](C)[O-] [Dimethylsulfoxide]
Aedes aegypti; [4]
  Response Avg %: 3.0%

## CCSSCC [diethyl disulfide]
Aedes aegypti; [1]
  Response with L-LA (%): 49%
Aedes aegypti; [2]
  Response (%): 33%
Aedes aegypti
  Δ [(Resp with LA) − Resp] (%): 16%
Anopheles albimanus; single treatment, 500 μL
  % caught: 2.8%

## CC1=CC(=O)CC(C)(C)C1 [Isophorone]
Anopheles albimanus; single treatment, 500 μL
  % caught: 13.3%

## Cc1ccccc1 [toluene]
Aedes aegypti; [1]
  Response with L-LA (%): 59%
Aedes aegypti; [2]
  Response (%): 7%
Aedes aegypti
  Δ [(Resp with LA) − Resp] (%): 52%

## CC(Cl)(Cl)Cl [1,1,1-Trichloroethane]
Anopheles albimanus; single treatment, 500 μL
  % caught: 61.0%

## CCCC(=O)OC [Methylbutyrate]
Anopheles albimanus; single treatment, 500 μL
  % caught: 55.8%

## ClCC(Cl)Cl [1,1,2-Trichloroethane]
Anopheles albimanus; single treatment, 500 μL
  % caught: 64.4%

## CC(=O)C=C(C)C [Mesityl Oxide]
Anopheles albimanus; single treatment, 500 μL
  % caught: 28.4%

## C=CC(O)CCCCC (stereo not shown) [1-Octen-3-ol]
Anopheles albimanus; single treatment, 500 μL
  % caught: 24.0%

## CCOC(C)=O [Ethyl Acetate]
Anopheles albimanus; single treatment, 500 μL
  % caught: 28.4%

## CCCCCCCCCO [1-Nonanol]
Anopheles albimanus; single treatment, 500 μL
  % caught: 4.1%

## CCC(=O)O [propanoic acid]
Aedes aegypti; [1]
  Response with L-LA (%): 1%
Aedes aegypti; [2]
  Response (%): 3%
Aedes aegypti
  Δ [(Resp with LA) − Resp] (%): −2%
Aedes aegypti; [4]
  Response Avg %: 3.0%

## CCOCC [diethyl ether]
Aedes aegypti; [1]
  Response with L-LA (%): 56%
Aedes aegypti; [2]
  Response (%): 25%
Aedes aegypti
  Δ [(Resp with LA) − Resp] (%): 31%

## C=CCCCCC [1-heptene]
Aedes aegypti; [5]
  Response (%): 4%
Aedes aegypti
  Response with Ace (%): 34%
  Δ [(Resp with LA) − Resp] (%): 14%
  Δ [(Resp with Ace) − Resp] (%): 30%
Aedes aegypti; [1]
  Response with L-LA (%): 19%
Aedes aegypti; [2]
  Response (%): 5%
Aedes aegypti; [4]
  Response Avg %: 5.0%

## O=C=O [carbon dioxide, reference compound]
Aedes aegypti; CO2 alone, dose 0.5, Aedes aegypti attraction
  Response Avg %: 4.0%
Aedes aegypti; carbon dioxide 5 ml/min with L-lactic acid
  Response with L-LA (%): 68%

## C=CCSSCC=C [Allyl Disulfide]
Anopheles albimanus; single treatment, 500 μL
  % caught: 0.0%

## BrC(Br)Br [bromoform]
Aedes aegypti; [1]
  Response with L-LA (%): 64%
Aedes aegypti; [2]
  Response (%): 27%
Aedes aegypti
  Δ [(Resp with LA) − Resp] (%): 37%

## O=C(O)CC(O)C(=O)O (racemic) [DL-Malic Acid]
Anopheles albimanus; single substance, Crys dish (crystalline solid)
  % caught: 0.0%

## CCCC(=O)C(C)=O [2,3-Hexanedione]
Anopheles albimanus; single treatment, 500 μL
  % caught: 2.7%

## CCS [Ethanethiol]
Anopheles albimanus; single treatment, 500 μL
  % caught: 40.0%

## O=CC(=O)O [Glyoxylic Acid]
Anopheles albimanus; single treatment, 500 μL
  % caught: 1.3%

## CCCCCCCCCC(C)=O [2-Undecanone]
Anopheles albimanus; single treatment, 500 μL
  % caught: 4.2%

## CCCCC [Pentane]
Anopheles albimanus; single treatment, 500 μL
  % caught: 2.7%

## ClC=C(Cl)Cl [Trichloroethylene]
Anopheles albimanus; single treatment, 500 μL
  % caught: 57.9%

## C=CCCCCCC [1-octene]
Aedes aegypti; [5]
  Response (%): 38%
Aedes aegypti
  Response with Ace (%): 63%
  Δ [(Resp with LA) − Resp] (%): 4%
  Δ [(Resp with Ace) − Resp] (%): 25%
Aedes aegypti; [1]
  Response with L-LA (%): 42%
Aedes aegypti; [2]
  Response (%): 38%

## CCCCCCCCC=O [nonanal]
Aedes aegypti
  Δ [(Resp with LA) − Resp] (%): 10%

## CC(=O)C=CC=C(C)C [6-Methyl-3,5-Heptadien-2-one]
Anopheles albimanus; single treatment, 500 μL
  % caught: 18.7%

## CC#N [acetonitrile]
Aedes aegypti; [1]
  Response with L-LA (%): 81%
Aedes aegypti; [2]
  Response (%): 27%
Aedes aegypti
  Δ [(Resp with LA) − Resp] (%): 54%

## O=C(O)C(O)C(O)C(=O)O (stereo not shown) [tartaric acid]
Aedes aegypti; [5]
  Response (%): 9%
Aedes aegypti
  Response with Ace (%): 67%
  Δ [(Resp with Ace) − Resp] (%): 58%

## Cn1cccc1 [1-Methylpyrrole]
Anopheles albimanus; single treatment, 500 μL
  % caught: 10.7%

## CCCCCCCC(=O)CC [3-Decanone]
Anopheles albimanus; single treatment, 500 μL
  % caught: 9.3%

## CC(=O)CCC(C)C [5-Methyl-2-Hexanone]
Anopheles albimanus; single treatment, 500 μL
  % caught: 11.7%

## c1ccc2[nH]ccc2c1 [Indole]
Anopheles albimanus; single treatment, 500 μL
  % caught: 1.3%

## CC=CC(=O)CC [4-Hexen-3-one]
Anopheles albimanus; single treatment, 500 μL
  % caught: 79.2%

## CO [methanol]
Aedes aegypti; [1]
  Response with L-LA (%): 66%
Aedes aegypti; [2]
  Response (%): 10%
Aedes aegypti
  Δ [(Resp with LA) − Resp] (%): 56%

## CCCCCCC(=O)CCC [4-Decanone]
Anopheles albimanus; single treatment, 500 μL
  % caught: 7.8%

## CC(C)=CC(=O)C=C(C)C [Phorone]
Anopheles albimanus; single treatment, 500 μL
  % caught: 50.6%

## C=CC(O)CCCC (stereo not shown) [1-hepten-3-ol]
Aedes aegypti; [1]
  Response with L-LA (%): 15%
Aedes aegypti; [2]
  Response (%): 10%
Aedes aegypti; default LA 200 μg, other chemicals 500 μL unless specified, containers as in the label
  attraction of various mixtures and items: 7%
Aedes aegypti
  Δ [(Resp with LA) − Resp] (%): 5%

## CCCCC/C=C/C(C)=O [t-3-Nonen-2-one]
Anopheles albimanus; single treatment, 500 μL
  % caught: 10.7%

## CC(C)CC(=O)CC(C)C [2,6-Dimethyl-4-Heptanone]
Anopheles albimanus; single treatment, 500 μL
  % caught: 18.7%

## CC=CC(C)=O [3-penten-2-one]
Aedes aegypti; [1]
  Response with L-LA (%): 49%
Aedes aegypti; [2]
  Response (%): 11%
Aedes aegypti
  Δ [(Resp with LA) − Resp] (%): 38%

## C=O [formaldehyde (37%), formaldehyde]
Aedes aegypti; [1]
  Response with L-LA (%): 5%
Aedes aegypti; [2]
  Response (%): 1%
Aedes aegypti
  Δ [(Resp with LA) − Resp] (%): 4%

## C=O [Formaldehyde]
Aedes aegypti; [4]
  Response Avg %: 1.0%

## CC(=O)O [Acetic Acid]
Anopheles albimanus; single treatment, 500 μL
  % caught: 2.7%

## c1ccsc1 [Thiophene]
Anopheles albimanus; single treatment, 500 μL
  % caught: 68.0%

## C[C@@H](O)C(=O)O [D-lactic acid]
Aedes aegypti; [5]
  Response (%): 8%
Aedes aegypti
  Response with Ace (%): 82%
  Δ [(Resp with Ace) − Resp] (%): 74%

## CC(C)S [2-Thiopropane]
Anopheles albimanus; single treatment, 500 μL
  % caught: 20.5%

## CN1CCNCC1 [1-Methylpiperazine]
Anopheles albimanus; single treatment, 500 μL
  % caught: 1.3%

## CCCCCC(=O)CCCCC [6-Undecanone]
Anopheles albimanus; single treatment, 500 μL
  % caught: 3.9%

## CCO [ethanol]
Aedes aegypti; [1]
  Response with L-LA (%): 57%
Aedes aegypti; [2]
  Response (%): 9%
Aedes aegypti
  Δ [(Resp with LA) − Resp] (%): 48%

## O=C(CCl)C(Cl)Cl [1,1,3-Trichloroacetone]
Anopheles albimanus; single treatment, 500 μL
  % caught: 5.6%

## CCCCCCCCCCC(C)=O [2-Dodecanone]
Anopheles albimanus; single treatment, 500 μL
  % caught: 1.4%

## CCCCC(=O)C(C)C [2-Methyl-3-Heptanone]
Anopheles albimanus; single treatment, 500 μL
  % caught: 34.7%

## CC(=O)CCC(C)=O [Acetonylacetone]
Anopheles albimanus; single treatment, 500 μL
  % caught: 0.0%

## CC=O [acetaldehyde]
Aedes aegypti; [1]
  Response with L-LA (%): 29%
Aedes aegypti; [2]
  Response (%): 8%
Aedes aegypti
  Δ [(Resp with LA) − Resp] (%): 21%

## CCCCCCCCCCCC(C)=O [2-Tridecanone]
Anopheles albimanus; single treatment, 500 μL
  % caught: 1.3%

## CCCCCCCCCCCC(=O)O [Laurie Acid]
Anopheles albimanus; single treatment, 500 μL
  % caught: 1.3%

## Nc1ccccn1 [2-Aminopyridine]
Anopheles albimanus; single treatment, 500 μL
  % caught: 0.0%

## CO [MeOH]
Aedes aegypti; [3]
  Response Avg %: 10.0%

## CC(C)C=O [isobutyraldehyde]
Aedes aegypti; [1]
  Response with L-LA (%): 32%
Aedes aegypti; [2]
  Response (%): 13%
Aedes aegypti
  Δ [(Resp with LA) − Resp] (%): 19%

## OCc1ccco1 [Furfuryl Alcohol]
Anopheles albimanus; single treatment, 500 μL
  % caught: 46.7%

## N#CC(Cl)(Cl)Cl [Trichloroacetonitrile]
Anopheles albimanus; single treatment, 500 μL
  % caught: 65.3%

## CCCCCC(=O)C(C)C [2-Methyl-3-Octanone]
Anopheles albimanus; single treatment, 500 μL
  % caught: 30.1%

## O=C(O)CO [glycolic acid]
Aedes aegypti; [5]
  Response (%): 17%
Aedes aegypti
  Δ [(Resp with Ace) − Resp] (%): 64%

## CCCS [1-Propanethiol]
Anopheles albimanus; single treatment, 500 μL
  % caught: 24.0%

## ClC(Cl)=C(Cl)Cl [Tetrachloroethylene]
Anopheles albimanus; single treatment, 500 μL
  % caught: 17.3%

## C=CCCCCCCC [1-nonene]
Aedes aegypti; [5]
  Response (%): 6%
Aedes aegypti
  Response with Ace (%): 54%
  Δ [(Resp with LA) − Resp] (%): 2%
  Δ [(Resp with Ace) − Resp] (%): 48%
Aedes aegypti; [1]
  Response with L-LA (%): 8%
Aedes aegypti; [2]
  Response (%): 6%

## C[S+](C)[O-] [dimethyl sulfoxide]
Aedes aegypti; [1]
  Response with L-LA (%): 30%
Aedes aegypti; [2]
  Response (%): 3%
Aedes aegypti
  Δ [(Resp with LA) − Resp] (%): 27%
